For one series, the system named is E. coli NIHJ JC-2. Description: Antibacterial activity test, MIC by two-fold dilution method. Format: cell-based. The following applies: Escherichia coli, NIHJJC2; E. coli NIHJ JC-2; 10^6 CFU/ml, 35° C., 18 to 20 hours; read-out: Minimum Inhibition Concentration. The protocol:
(§1) The measurement was carried out in the following manner: 10^6 CFU/ml of a bacterium to be tested was inoculated on a Medium N for disc susceptibility test (manufactured by Nissui Pharmaceutical Co., Ltd.), and cultivated at 35° C. for 18 to 20 hours.

The test system of the next series is K. pneumoniae PC1602. Described as above. The format is cell-based. The following applies: Klebsiella pneumoniae; K. pneumoniae PC1602; 10^6 CFU/ml, 35° C., 18 to 20 hours; read-out: Minimum Inhibition Concentration. The protocol: as §1
In a further series the test system is C. freundii GN346/16. Described as above. Format: cell-based. The conditions noted are these: Citrobacter freundii; C. freundii GN346/16; 10^6 CFU/ml, 35° C., 18 to 20 hours; read-out: Minimum Inhibition Concentration. On the procedure:
as §1

In the next series the test system is S. Aureus 209P JC-1. The series is described as above. The conditions noted are these: Staphylococcus aureus, read-out: Minimum Inhibition Concentration. Format: cell-based. On the procedure:
as §1

The subject of another series is P. aeruginosa GN10362. Described as above. The format is cell-based. The conditions noted are these: Pseudomonas aeruginosa. On the procedure: as §1
The subject of a further series is P. aeruginosa E-2. Described as above. Format: cell-based. The following applies: Pseudomonas aeruginosa. On the procedure:
as §1

The subject of a further series is S. marcescens No. 1. Described as above. The format is cell-based. The following applies: Serratia marcescens. On the procedure: as §1
Another series relates to S. epidermidis ATCC14990. The description is as above. The format is cell-based. The following applies: Staphylococcus epidermidis; S. epidermidis ATCC14990; 10^6 CFU/ml, 35° C., 18 to 20 hours; read-out: Minimum Inhibition Concentration. On the procedure:
as §1

In another series the test system is M. morganii 1510/S-1. The series is described as above. The conditions noted are these: Morganella morganii. The format is cell-based. On the procedure: as §1
A further series relates to E. cloacae G-0008. The description is as above. The format is cell-based. The conditions noted are these: Enterobacter cloacae, G0008; E. cloacae G-0008; 10^6 CFU/ml, 35° C., 18 to 20 hours; read-out: Minimum Inhibition Concentration. The protocol:
as §1

The test system of the next series is P. vulgaris GN76. The description is as above. The format is cell-based. The conditions noted are these: Proteus vulgaris. On the procedure:
as §1

The next series has as its system S. Aureus 126. Described as above. The format is cell-based, Staphylococcus aureus (methicillin-resistant, MRSA). The conditions noted are these: Staphylococcus aureus, read-out: Minimum Inhibition Concentration. On the procedure:
as §1

In a further series the test system is S. Aureus 133. The description is as above. The format is cell-based, Staphylococcus aureus (methicillin-resistant, MRSA). The following applies: Staphylococcus aureus, read-out: Minimum Inhibition Concentration. The protocol:
as §1

Series [1] in a line: Acute toxicity test in ICR mice. Format: in vivo. The conditions noted are these: mouse, in vivo, iv. On the procedure:
(§2) 0.5 ml of a pharmaceutical solution prepared by dissolving a compound of the present invention in a physiological saline solution for injection (80 mg/ml) was injected to the caudal veins of ICR mice (4 weeks old, male, body weight: approx. 20 g). Two weeks after the administration, the mice were observed whether they were dead or not. […] Therefore, the LD50 of this compound is >2 g/kg (>40 mg/mouse).

Another series has as its system ICR mice. As to the kind of experiment: Acute toxicity test in ICR mice. The format is in vivo. The protocol: as §2

The values that follow come from patent US5663162A, “Cephem derivatives” (priority 1993, dated 1997).

In brackets after ≈: the same amount, converted by molar mass. Where two headings read alike, the source gives them in different places.

Turning to `Nc1nc(/C(=N/OC2CCCC2)C(=O)N[C@@H]2C(=O)N3C(C(=O)[O-])=C(C[n+]4cc5sccn5c4)CS[C@H]23)ns1` [Example 112, (6R,7R)-7-[(Z)-2-(5-Amino-1,2,4-thiadiazol-3-yl)-2-cyclopentyl-oxyiminoacetamide]-3-(imidazo[5,1-b]thiazolium-6-yl)methyl-3-cephem-4-carboxylate], the MIC with E. coli NIHJ JC-2 was 0.78 µg/mL (≈ 1.36 µM); in the series with K. pneumoniae PC1602, 0.78 µg/mL (≈ 1.36 µM); in the series with C. freundii GN346/16 it was 0.78 µg/mL (≈ 1.36 µM); with S. Aureus 209P JC-1 (209P), 0.39 µg/mL (≈ 0.679 µM); in the series with P. aeruginosa GN10362 (P. aeruginosa GN10362, 10^6 CFU/ml, 35° C., 18 to 20 hours, read-out: Minimum Inhibition Concentration), 3.13 µg/mL (≈ 5.45 µM); in the series on P. aeruginosa E-2 (E2, P. aeruginosa E-2, 10^6 CFU/ml, 35° C., 18 to 20 hours, read-out: Minimum Inhibition Concentration), 3.13 µg/mL (≈ 5.45 µM). For the same compound, the MIC with S. marcescens No. 1 (NO.1, read-out: Minimum Inhibition Concentration) is 1.56 µg/mL (≈ 2.71 µM); with S. epidermidis ATCC14990 it was 0.2 µg/mL (≈ 0.348 µM); with M. morganii 1510/S-1 (1510/S1, read-out: Minimum Inhibition Concentration) it was 0.39 µg/mL (≈ 0.679 µM); with E. cloacae G-0008, 0.78 µg/mL (≈ 1.36 µM); with P. vulgaris GN76 (P. vulgaris GN76, 10^6 CFU/ml, 35° C., 18 to 20 hours, read-out: Minimum Inhibition Concentration) it was 3.13 µg/mL (≈ 5.45 µM); in the series with S. Aureus 126 (S. Aureus 126 (MRSA), 10^6 CFU/ml, 35° C., 18 to 20 hours) it was 3.13 µg/mL (≈ 5.45 µM). In addition, the MIC in the series with S. Aureus 133 (S. Aureus 133 (MRSA), 10^6 CFU/ml, 35° C., 18 to 20 hours) was 3.13 µg/mL (≈ 5.45 µM).

For the compound `CCO/N=C(\C(=O)N[C@@H]1C(=O)N2C(C(=O)[O-])=C(C[n+]3cc4sccn4c3CNC=O)CS[C@H]12)c1nsc(N)n1` [Example 49, (6R,7R)-7-[(Z)-2-(5-Amino-1,2,4-thiadiazol-3-yl)-2-ethoxyiminoacetamide]-3-[5-(formylamino)methylimidazo[5,1-b]thiazolium-6-yl]methyl-3-cephem-4-carboxylate], the LD50 at 336 h in series [1] is > 2000 mg/kg. Also, in the series with ICR mice (ICR mice, 0.5 ml of 80 mg/ml solution, caudal vein, 3 cases), the “survival two weeks after administration” value is “all (3 cases) alive”. In addition, the LD50 with ICR mice (mouse, in vivo) was > 40 mg/mouse. Also, the MIC turned out to be 0.05 µg/mL (≈ 0.0845 µM) in the series on E. coli NIHJ JC-2; 0.05 µg/mL (≈ 0.0845 µM) in the series on K. pneumoniae PC1602; 0.05 µg/mL (≈ 0.0845 µM) with C. freundii GN346/16; 0.78 µg/mL (≈ 1.32 µM) in the series with S. Aureus 209P JC-1 (S. Aureus 209P JC-1, 10^6 CFU/ml, 35° C., 18 to 20 hours); 1.56 µg/mL (≈ 2.64 µM) in the series with P. aeruginosa GN10362 (GN10362, read-out: Minimum Inhibition Concentration); 1.56 µg/mL (≈ 2.64 µM) in the series with P. aeruginosa E-2 (E2, read-out: Minimum Inhibition Concentration). The MIC in the series on S. marcescens No. 1 (S. marcescens No. 1, 10^6 CFU/ml, 35° C., 18 to 20 hours, read-out: Minimum Inhibition Concentration) is 0.1 µg/mL (≈ 0.169 µM); in the series on S. epidermidis ATCC14990, 0.78 µg/mL (≈ 1.32 µM); in the series with M. morganii 1510/S-1 (1510/S1, M. morganii 1510/S-1, 10^6 CFU/ml, 35° C., 18 to 20 hours, read-out: Minimum Inhibition Concentration), ≤ 0.025 µg/mL; in the series on E. cloacae G-0008 it was 0.05 µg/mL (≈ 0.0845 µM); with P. vulgaris GN76 (GN76, read-out: Minimum Inhibition Concentration) it was 0.39 µg/mL (≈ 0.659 µM); with S. Aureus 126 (MRSA) it was 6.25 µg/mL (≈ 10.6 µM). Besides, the MIC with S. Aureus 133 (MRSA) is 6.25 µg/mL (≈ 10.6 µM).
